Read-outs that look alike come from different tables or passages of the source.
Legend:
MCF-7 = assay: MTT cancer cell proliferation assay, MCF-7; type: cell-based, human
Procedure: (§1) In Vitro Determination of Effects of Synthesized Diterpenoids on Cancer Cell Proliferation. Breast cancer cell lines MCF-7, MDA-MB-231, […] and MCF/ADR were seeded in 96-well plates at a density of 1×10^4 cells/well and treated with DMSO and 0.01, 0.1, 1, 5, 10, and 100 μM of individual compound for 48 h, and then 20 μL of 3-(4,5-dimethylthiazol-2-yl)-2,5-diphenyltetrazolium bromide (MTT) (5 mg/mL in PBS) was added to each well and further incubated for another 4 h. Then MTT solution was removed, and 150 μL of DMSO was added to each well. Absorbance of all wells was determined by measuring OD at 550 nm after a 10 min incubation on a 96-well GlowMaxate absorbance reader (Promega, Madison, Wis.). Each individual compound was tested in quadruplicate wells for each concentration.
(§2) The growth inhibitory effects of the newly generated pyran-fused diterpenoids were evaluated in four breast cancer cell lines MCF-7 (ER-positive), MDAMB-231 (ER-negative and triple-negative), MDA-MB-468 (ER-negative and triple-negative) as well as MCF-7/ADR (adriamycin-resistant) using MTT assays as described in the Experimental Section.

MDA-MB-231 = assay: MTT cancer cell proliferation assay, MDA-MB-231; type: cell-based, human
Procedure: as §1, §2

MDA-MB-468 = assay: MTT cancer cell proliferation assay, MDA-MB-468; type: cell-based, human; details: Table 3, pyran-fused diterpenoids, MTT 48 h, mean ± SE of three experiments
Procedure: as §1
as §2, with “Section. The capability of these new molecules to inhibit the growth of cancer cells was summarized in Table 3 and compared with that of adriamycin and 1 spontaneously.” for “Section.”

MCF-7/ADR = assay: MTT growth inhibition, drug-resistant MCF-7/ADR; type: cell-based, human; details: Table 3, adriamycin-resistant, MTT 48 h, mean ± SE of three experiments
Procedure: as §1
as §2, with “Section. The capability of these new molecules to inhibit the growth of cancer cells was summarized in Table 3 and compared with that of adriamycin and 1 spontaneously.” for “Section.”

AsPC1 = assay: Cancer cell proliferation assay, AsPC1; type: cell-based; details: Homo sapiens, ASPC1
Procedure: (§3) In Vitro Determination of Effects of Synthesized Diterpenoids on Cancer Cell Proliferation. […] Then MTT solution was removed, and 150 μL of DMSO was added to each well. Absorbance of all wells was determined by measuring OD at 550 nm after a 10 min incubation on a 96-well GlowMaxate absorbance reader (Promega, Madison, Wis.). Each individual compound was tested in quadruplicate wells for each concentration.

DU145 = assay: Cancer cell proliferation assay, DU145; type: cell-based; details: Homo sapiens, DU-145
Panc-1 = assay: Cancer cell proliferation assay, Panc-1; type: cell-based; details: Homo sapiens, PANC-1
Procedure: as §3

[1] = Homo sapiens, MCF7, 48 h, Table 3, pyran-fused diterpenoids, MTT 48 h, mean ± SE of three experiments, read-out: IC50 (μM) MCF-7
[2] = Homo sapiens, MDA-MB-231, 48 h, Table 3, pyran-fused diterpenoids, MTT 48 h, mean ± SE of three experiments, read-out: IC50 (μM) MDA-MB-231
[3] = Homo sapiens, NCI/ADR-RES, 48 h
[4] = Homo sapiens, MCF7, Table 1a, breast cancer, read-out: IC50 (μM) MCF-7
[5] = Homo sapiens, MCF7, Table 2b, mean of at least three experiments, read-out: Effect on proliferation MCF-7 (ER positive) (IC50)
[6] = Table 1a, pancreatic cancer, read-out: IC50 (μM) AsPC1
[7] = Table 2b, mean of at least three experiments, read-out: Effect on proliferation AsPC1 (IC50)
[8] = Homo sapiens, MDA-MB-231, Table 1a, breast cancer, read-out: IC50 (μM) MDA-MB-231
[9] = Homo sapiens, MDA-MB-231, Table 2b, mean of at least three experiments, read-out: Effect on proliferation MDA-MB-231 (ER negative) (IC50)
[10] = Table 1a, prostate cancer, read-out: IC50 (μM) DU145
[11] = Table 2b, mean of at least three experiments, read-out: Effect on proliferation DU145 (IC50)
[12] = Table 1a, pancreatic cancer, read-out: IC50 (μM) Panc-1
[13] = Table 2b, mean of at least three experiments, read-out: Effect on proliferation Panc-1 (IC50)
[14] = Table 3, pyran-fused diterpenoids, MTT 48 h, mean ± SE of three experiments, read-out: IC50 (μM) MCF-7
[15] = Table 3, pyran-fused diterpenoids, MTT 48 h, mean ± SE of three experiments, read-out: IC50 (μM) MDA-MB-231

IC50 (MCF-7; [1]) [µM]	IC50 (MDA-MB-231; [2]) [µM]	IC50 (MDA-MB-468; Homo sapiens, MDA-MB-468, 48 h) [µM]	IC50 (MCF-7/ADR; [3]) [µM]	SMILES	further results
2.14 ± 1.11	3.18 ± 0.24	2.65 ± 0.14	4.51 ± 1.54	C=C1C(=O)[C@@]23[C@@H]4OC(C)(C)O[C@@]25OC[C@]2(C6=C(CC[C@H](OCCCCO)O6)CC(C)(C)[C@H]2[C@@H]5O)[C@@H]3CC[C@@H]14 [CYD-8-67-1]	
2.39 ± 0.78	2.53 ± 0.77	3.33 ± 0.58	2.89 ± 0.32	C=C1C(=O)[C@@]23[C@@H]4OC(C)(C)O[C@@]25OC[C@]2(C6=C(C[C@H]7CCCO[C@H]7O6)CC(C)(C)[C@H]2[C@@H]5O)[C@@H]3CC[C@@H]14 [CYD-8-74-2]	
6.76 ± 3.43	7.15 ± 1.27	7.26 ± 0.23	8.74 ± 0.27	C=C1C(=O)[C@@]23[C@@H]4OC(C)(C)O[C@@]25OC[C@]2(C6=C(CC[C@@H](OCCCl)O6)CC(C)(C)[C@H]2[C@@H]5O)[C@@H]3CC[C@@H]14 [CYD-8-65-2]	

The remaining lines, values behind:

SMILES	IC50 (MCF-7; [1]) [µM]	IC50 (MDA-MB-231; [2]) [µM]	IC50 (MDA-MB-468; Homo sapiens, MDA-MB-468, 48 h) [µM]	IC50 (MCF-7/ADR; [3]) [µM]	further results
C=C1C(=O)[C@@]23[C@@H]4OC(C)(C)O[C@@]25OC[C@]2(C6=C(CC[C@H](OCC(C)C)O6)CC(C)(C)[C@H]2[C@@H]5O)[C@@H]3CC[C@@H]14 [CYD-8-52-1]	2.24 ± 1.33	1.76 ± 0.22	2.62 ± 0.08	4.42 ± 0.9	
C=C1C(=O)[C@]23[C@H](O)[C@H]1CC[C@H]2[C@@]12CO[C@]3(O)[C@@H](O)[C@@H]1C(C)(C)Cc1sc(N)nc12 [CYD-5-41, (5aR,6S,7S,7aR,10S,12aS,12bR,15R)-2-amino-6,7,15-trihydroxy-5,5-dimethyl-9-methylene-5,5a,6,7,10,11,12,12a-octahydro-4H-7,12b-(epoxymethano)-7a,10-methanocyclohepta[7,8]naphtho[1,2-d]thiazol-8(9H)-one]					IC50 (MCF-7; [4]): 1.02 µM; IC50 (MCF-7; [5]): 1 µM; IC50 (AsPC1; [6]): 5.58 µM; IC50 (AsPC1; [7]): 5.6 µM; IC50 (MDA-MB-231; [8]): 3.24 µM; IC50 (MDA-MB-231; [9]): 3.2 µM; IC50 (DU145; [10]): 3.46 µM; IC50 (DU145; [11]): 3.5 µM; IC50 (Panc-1; [12]): 6.13 µM; IC50 (Panc-1; [13]): 6.1 µM
C=C1C(=O)[C@@]23C(CC[C@H]1[C@H]2O)[C@@]12CO[C@]3(O)[C@@H](O)C1C(C)(C)Cc1sc(N3CCCCCC3)nc12 (stereo partly drawn) [CYD-6-26-2, (6S,7S,7aR,10R,12bR,15R)-2-(azepan-1-yl)-6,7,15-trihydroxy-5,5-dimethyl-9-methylene-5,5a,6,7,10,11,12,12a-octahydro-4H-7,12b-(epoxymethano)-7a,10-methanocyclohepta[7,8]naphtho[1,2-d]thiazol-8(9H)-one]					IC50 (MCF-7; [4]): 1.15 µM; IC50 (MCF-7; [5]): 1.2 µM; IC50 (AsPC1; [6]): 2.3 µM; IC50 (AsPC1; [7]): 2.3 µM; IC50 (MDA-MB-231; [8]): 6.82 µM; IC50 (MDA-MB-231; [9]): 6.8 µM; IC50 (DU145; [10]): 4.74 µM; IC50 (DU145; [11]): 4.7 µM; IC50 (Panc-1; [12]): 6.29 µM; IC50 (Panc-1; [13]): 6.3 µM
C=C1C(=O)[C@@]23[C@@H]4OC(C)(C)O[C@@]25OC[C@]2(C6=C(CC[C@@H](OCCCCO)O6)CC(C)(C)[C@H]2[C@@H]5O)[C@@H]3CC[C@@H]14 [CYD-8-67-2]	5.17 ± 2.9	5.89 ± 2.04	5.96 ± 0.29	5.34 ± 1.29	
COc1cccc2c1C(=O)c1c(O)c3c(c(O)c1C2=O)C[C@@](O)(C(=O)CO)C[C@@H]3O[C@H]1C[C@H](N)[C@H](O)[C@H](C)O1 [Adriamycin, reference compound]	0.67 ± 0.45	2.33 ± 0.22	0.65 ± 0.26	> 10	
C=CCO[C@H]1CCC2=C(O1)[C@@]13CO[C@@]4(OC(C)(C)O[C@@H]5[C@H]6CC[C@@H]1[C@]54C(=O)C6=C)[C@@H](O)[C@@H]3C(C)(C)C2 [CYD-8-66-1]	4.32 ± 1.82	7.12 ± 0.22	4.89 ± 0.85	4.31 ± 2.43	
C=C1C(=O)[C@@]23[C@@H]4OC(C)(C)O[C@@]25OC[C@]2(C6=C(CC[C@@H](OCC)O6)CC(C)(C)[C@H]2[C@@H]5O)[C@@H]3CC[C@@H]14 [CYD-8-45-1]					IC50 (MCF-7; [14]): 3.52 ± 2.15 µM; IC50 (MDA-MB-231; [15]): 6.13 ± 2.43 µM; IC50 (MDA-MB-468): 5.4 ± 0.98 µM; IC50 (MCF-7/ADR): 4.65 ± 3.15 µM
C=C1C(=O)[C@@]23[C@@H]4OC(C)(C)O[C@@]25OC[C@]2(C6=C(CC[C@H](OCCCl)O6)CC(C)(C)[C@H]2[C@@H]5O)[C@@H]3CC[C@@H]14 [CYD-8-65-1]	2.31 ± 1.02	3.3 ± 1.81	2.99 ± 1.01	3.08 ± 1.12	
C=C1C(=O)[C@@]23[C@@H]4OC(C)(C)O[C@@]25OC[C@]2(C6=C(CC[C@H](OCCCN=[N+]=[N-])O6)CC(C)(C)[C@H]2[C@@H]5O)[C@@H]3CC[C@@H]14 [CYD-8-87]	7.79 ± 3.18	7.57 ± 0.44	6.63 ± 0.77	8.6 ± 0.7	
C=C1C(=O)[C@]23[C@H](O)[C@H]1CC[C@H]2[C@@]12CO[C@@]3(O)[C@@H](O)[C@@H]1C(C)(C)CC1=C2O[C@@H](OCC)CC1 [CYD-8-50]	1.9 ± 0.97	3.32 ± 1.01	2.24 ± 0.68	3.18 ± 0.89	
C=C1C(=O)[C@@]23[C@@H]4OC(C)(C)OC25OC[C@]2(C6=C(CC[C@H](OCCCC)O6)CC(C)(C)[C@H]2[C@@H]5O)[C@@H]3CC[C@@H]14 [CYD-8-69-1]	2.41 ± 1.45	2.23 ± 0.39	2.98 ± 0.67	3.8 ± 1.15	
C=C1C(=O)[C@@]23[C@@H]4OC(C)(C)O[C@@]25OC[C@]2(C6=C(CC[C@H](OCC)O6)CC(C)(C)[C@H]2[C@@H]5O)[C@@H]3CC[C@@H]14 [CYD-8-69-2]	2.41 ± 1.86	3.73 ± 0.28	5.81 ± 1.92	6.79 ± 3.46	
C=C1C(=O)[C@@]23[C@@H]4OC(C)(C)O[C@@]25OC[C@]2(C6=C(CC[C@@H](OCC)O6)CC(C)(C)[C@H]2[C@@H]5O)[C@@H]3CC[C@@H]14 [CYD-8-45-2]					IC50 (MCF-7; [14]): 0.44 ± 0.27 µM; IC50 (MDA-MB-231; [15]): 0.54 ± 0.14 µM; IC50 (MDA-MB-468): 0.52 ± 0.18 µM; IC50 (MCF-7/ADR): 1.64 ± 0.72 µM
C=CCO[C@@H]1CCC2=C(O1)[C@@]13CO[C@@]4(OC(C)(C)O[C@@H]5[C@H]6CC[C@@H]1[C@]54C(=O)C6=C)[C@@H](O)[C@@H]3C(C)(C)C2 [CYD-8-66-2]	2.1 ± 0.98	3.3 ± 0.23	4.37 ± 1.48	3.19 ± 0.54	
C=C1C(=O)[C@@]23[C@@H]4OC(C)(C)O[C@@]25OC[C@]2(C6=C(CC[C@@H](SCC)O6)CC(C)(C)[C@H]2[C@@H]5O)[C@@H]3CC[C@@H]14 [CYD-8-84]	2.3 ± 1.4	2.87 ± 0.54	2.83 ± 0.42	3.82 ± 0.47	
C=C1C(=O)[C@@]23C(CC[C@H]1[C@H]2O)[C@@]12CO[C@]3(O)[C@@H](O)C1C(C)(C)Cc1sc(NC(C)=O)nc12 (stereo partly drawn) [CYD-6-21, N-((6S,7S,7aR,10R,12bR,15R)-6,7,15-trihydroxy-5,5-dimethyl-9-methylene-8-oxo-5,5a,6,7,8,9,10,11,12,12a-decahydro-4H-7,12b-(epoxymethano)-7a,10-methanocyclohepta[7,8]naphtho[1,2-d]thiazol-2-yl)acetamide]					IC50 (MCF-7; [4]): 1.99 µM; IC50 (MCF-7; [5]): 2 µM; IC50 (AsPC1; [6]): 4.83 µM; IC50 (AsPC1; [7]): 4.8 µM; IC50 (MDA-MB-231; [8]): 6.82 µM; IC50 (MDA-MB-231; [9]): 6.8 µM; IC50 (DU145; [10]): 6.34 µM; IC50 (DU145; [11]): 6.3 µM; IC50 (Panc-1; [12]): 6.71 µM; IC50 (Panc-1; [13]): 6.7 µM

— patent US9725460B2, “Oridonin analogs, compositions, and methods related thereto” (THE BOARD OF REGENTS OF THE UNIVERSITY OF TEXAS SYSTEM, priority 2013, dated 2017)
